Assay results: patent publication US10208089B2, “Modulation of complement activity” (priority 2014, dated 2019)
Starred links: 1 amine or outer side, 2 acyl side, 3 side chain; linkers in the order of their positions; H or OH if unused. Positions of bridges follow the written chain, without caps; N, C: chain ends. Non-standard residues stand in square brackets, D forms with d. Residues, ends and D or L forms follow the SMILES beside them. Trp(7-aza) = N[C@@H](Cc1c[nH]c2ncccc12)C(=O)O; NMePhe(4-F) = CN[C@@H](Cc1ccc(F)cc1)C(=O)O; mXylylene = c1cc(C[*:1])cc(C[*:2])c1; oXylylene = c1ccc(C[*:2])c(C[*:1])c1; dPhg = N[C@@H](C(=O)O)c1ccccc1; Chg = N[C@H](C(=O)O)C1CCCCC1; Phg = N[C@H](C(=O)O)c1ccccc1; Tle = CC(C)(C)[C@H](N)C(=O)O; NMeS = CN[C@@H](CO)C(=O)O; Nle = CCCC[C@H](N)C(=O)O; Nva = CCC[C@H](N)C(=O)O

Target: C5 (Homo sapiens, UniProt P01031)
Sequence (P01031 19-1676): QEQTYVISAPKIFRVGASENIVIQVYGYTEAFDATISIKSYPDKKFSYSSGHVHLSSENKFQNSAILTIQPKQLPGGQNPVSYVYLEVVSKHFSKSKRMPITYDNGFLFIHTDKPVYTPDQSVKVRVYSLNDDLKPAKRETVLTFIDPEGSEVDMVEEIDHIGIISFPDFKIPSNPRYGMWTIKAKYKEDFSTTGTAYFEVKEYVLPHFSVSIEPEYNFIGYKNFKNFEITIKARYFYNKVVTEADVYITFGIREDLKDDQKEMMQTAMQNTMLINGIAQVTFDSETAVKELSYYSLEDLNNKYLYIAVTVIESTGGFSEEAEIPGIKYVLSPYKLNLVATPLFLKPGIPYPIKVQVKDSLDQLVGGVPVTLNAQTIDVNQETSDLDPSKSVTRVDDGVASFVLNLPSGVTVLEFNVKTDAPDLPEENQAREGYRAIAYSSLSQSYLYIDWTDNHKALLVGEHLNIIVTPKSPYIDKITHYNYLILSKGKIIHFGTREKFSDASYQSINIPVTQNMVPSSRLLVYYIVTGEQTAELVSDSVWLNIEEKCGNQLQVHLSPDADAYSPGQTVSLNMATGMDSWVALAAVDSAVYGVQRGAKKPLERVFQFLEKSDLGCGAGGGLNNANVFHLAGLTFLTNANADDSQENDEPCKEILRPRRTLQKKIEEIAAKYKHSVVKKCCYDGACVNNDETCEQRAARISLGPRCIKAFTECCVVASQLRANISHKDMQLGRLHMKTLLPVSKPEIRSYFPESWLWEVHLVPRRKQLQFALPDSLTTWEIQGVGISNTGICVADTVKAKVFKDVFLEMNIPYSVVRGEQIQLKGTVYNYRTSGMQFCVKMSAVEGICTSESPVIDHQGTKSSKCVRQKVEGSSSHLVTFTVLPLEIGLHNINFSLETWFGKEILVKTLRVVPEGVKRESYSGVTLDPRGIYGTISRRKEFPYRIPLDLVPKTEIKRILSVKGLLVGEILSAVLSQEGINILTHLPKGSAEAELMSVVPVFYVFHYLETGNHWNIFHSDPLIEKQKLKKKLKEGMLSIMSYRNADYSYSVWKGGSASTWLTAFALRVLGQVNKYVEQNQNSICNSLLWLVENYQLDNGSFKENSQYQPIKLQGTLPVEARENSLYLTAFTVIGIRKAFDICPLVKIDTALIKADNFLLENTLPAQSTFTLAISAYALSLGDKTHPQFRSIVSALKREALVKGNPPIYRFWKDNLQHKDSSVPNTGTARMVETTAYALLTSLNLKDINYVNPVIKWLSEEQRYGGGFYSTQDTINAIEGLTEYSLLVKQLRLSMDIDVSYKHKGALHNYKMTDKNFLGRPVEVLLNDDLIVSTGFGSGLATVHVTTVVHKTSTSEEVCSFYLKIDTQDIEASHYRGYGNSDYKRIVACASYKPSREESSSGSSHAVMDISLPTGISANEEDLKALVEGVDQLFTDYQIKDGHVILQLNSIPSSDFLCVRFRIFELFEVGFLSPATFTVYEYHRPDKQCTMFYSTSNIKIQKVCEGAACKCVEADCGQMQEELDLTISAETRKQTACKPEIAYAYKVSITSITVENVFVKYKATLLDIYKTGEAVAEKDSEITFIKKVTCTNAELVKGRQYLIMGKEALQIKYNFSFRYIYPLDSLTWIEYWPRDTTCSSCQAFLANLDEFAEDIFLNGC
Test: Human hemolysis assay (RBC lysis assay using complete human sera)
Assay type: cell-based
Set-up: with complete human sera (Complement Technology, Tyler Tex.) and polypeptides; tissue Complement Technology, Tyler Tex; host or cells: complete human serum
[1] = inhibition of lysis of antibody-sensitized sheep erythrocytes, complete human sera
[2] = 7-azatryptophan variant polypeptides of R3002, inhibition of red blood cell lysis

| Compound | IC50 [1] [µM] | other results |
| --- | --- | --- |
| CCC[C@H](NC(=O)[C@@H](NC(=O)[C@@H]1CCCN1C(=O)[C@H](Cc1ccc(O)cc1)NC(=O)[C@H](CCC(=O)O)NC(=O)[C@H](Cc1c[nH]c2ncccc12)NC(=O)[C@H](Cc1ccc(O)cc1)NC(=O)[C@@H](NC(=O)[C@H](CC(=O)O)N(C)C(=O)[C@@H]1CSCc2cccc(c2)CSC[C@H](NC(C)=O)C(=O)N[C@@H](C(C)C)C(=O)N[C@@H](CCC(=O)O)C(=O)N[C@@H](CCCNC(=N)N)C(=O)N[C@@H](Cc2ccccc2)C(=O)N1)C(C)(C)C)C1CCCCC1)C(N)=O [Compound R3172, [mXylyl(1,6)]Ac-C-V-E-R-F-C-(N-Me)D-Tbg-Y-azaTrp-E-Y-P-Chg-Nvl-NH2] | 0.012 | – |
| CCC[C@H](NC(C)=O)C(=O)N[C@@H](CS)C(=O)N[C@@H](Cc1ccc(O)cc1)C(=O)N[C@@H](CC(N)=O)C(=O)N[C@@H](CC(N)=O)C(=O)N[C@H](C(=O)N[C@@H](CCC(=O)O)C(=O)N[C@@H](CS)C(=O)N[C@@H](CCC(=O)O)C(=O)N[C@@H](Cc1ccc(O)cc1)C(=O)N1CCC[C@H]1C(=O)N[C@H](C(=O)N[C@H](C(N)=O)C(C)(C)C)c1ccccc1)C(C)(C)C [Compound R3128, Ac-Nvl-C-Y-N-N-Tbg-E-C-E-Y-P-Phg-Tbg-NH2] (Ac-[Nva]CYNN[Tle]ECEYP[Phg][Tle]-NH2) | > 100 | IC50 [2]: > 100 µM |
| CCCC[C@H](NC(C)=O)C(=O)N[C@H]1CSCc2cccc(c2)CSC[C@@H](C(=O)N[C@@H](CCC)C(N)=O)NC(=O)[C@H](Cc2c[nH]cn2)NC(=O)[C@H](CO)N(C)C(=O)[C@H](Cc2ccc(O)cc2)NC(=O)[C@H](CCC(=O)O)NC(=O)[C@H](Cc2c[nH]c3ncccc23)NC(=O)[C@H]([C@@H](C)O)NC(=O)[C@H](c2ccccc2)NC1=O [Compound R3112, [mXyly1(2,10)]Ac-Nle-C-Phg-T-azaTrp-E-Y-(N-Me)S-H-C-Nvl-NH2] (Ac-[Nle]C[Phg]T[Trp(7-aza)]EY[NMeS]HC[Nva]-NH2; linker 2-10 via mXylylene) | > 5 | – |
| CCC[C@H](NC(=O)[C@@H](NC(=O)[C@@H]1CCCN1C(=O)[C@H](Cc1ccc(O)cc1)NC(=O)[C@H](CCC(=O)O)NC(=O)[C@H](Cc1c[nH]c2ccc(OC)cc12)NC(=O)[C@H](Cc1ccc(O)cc1)NC(=O)[C@@H](NC(=O)[C@H](CC(N)=O)NC(=O)[C@H](CCC(=O)O)NC(=O)[C@H](Cc1ccc(O)cc1)NC(C)=O)C(C)(C)C)c1ccccc1)C(N)=O [Compound R3094, Ac-Y-E-N-Tbg-Y-(5-MeO)W-E-Y-P-Phg-Nvl-NH2] | > 100 | IC50 [2]: > 100 µM |
| CCC[C@H](NC(=O)[C@@H]1CSCc2cccc(c2)CSC[C@H](NC(=O)[C@H](CCC)NC(C)=O)C(=O)N[C@@H](c2ccccc2)C(=O)N[C@@H]([C@@H](C)O)C(=O)N[C@@H](Cc2c[nH]c3ncccc23)C(=O)N[C@@H](CCC(N)=O)C(=O)N[C@@H](Cc2ccc(O)cc2)C(=O)N(C)[C@@H](CO)C(=O)N[C@@H](C)C(=O)N1)C(N)=O [Compound R3098, [mXylyl(2,10)]Ac-Nvl-C-Phg-T-azaTrp-Q-Y-(N-Me)S-A-C-Nvl-NH2] (Ac-[Nva]C[Phg]T[Trp(7-aza)]QY[NMeS]AC[Nva]-NH2; linker 2-10 via mXylylene) | > 100 | – |
| CCC[C@H](NC(=O)[C@@H]1CSCc2ccccc2CSC[C@H](NC(=O)[C@H](CCC)NC(C)=O)C(=O)N[C@@H](c2ccccc2)C(=O)N[C@@H]([C@@H](C)O)C(=O)N[C@@H](Cc2c[nH]c3ncccc23)C(=O)N[C@@H](CCC(=O)O)C(=O)N[C@@H](Cc2ccc(O)cc2)C(=O)N(C)[C@@H](CO)C(=O)N[C@@H](Cc2c[nH]cn2)C(=O)N1)C(N)=O [Compound R3049, [oXylyl(2,10)]Ac-Nvl-C-Phg-T-azaTrp-E-Y-(N-Me)S-H-C-Nvl-NE2] (Ac-[Nva]C[Phg]T[Trp(7-aza)]EY[NMeS]HC[Nva]-NH2; linker 2-10 via oXylylene) | > 3.1 | – |
| CCC[C@H](NC(=O)[C@H](NC(=O)[C@@H]1CCCN1C(=O)[C@H](Cc1ccc(O)cc1)NC(=O)[C@H](CCC(=O)O)NC(=O)[C@H](Cc1c[nH]c2ncccc12)NC(=O)[C@H](Cc1ccc(O)cc1)NC(=O)[C@@H](NC(=O)[C@H](CC(=O)O)NC(=O)[C@@H]1CSCc2cccc(c2)CSC[C@H](NC(C)=O)C(=O)N[C@@H](C(C)C)C(=O)N[C@@H](C)C(=O)N[C@@H](CCCNC(=N)N)C(=O)N[C@@H](Cc2ccccc2)C(=O)N1)C(C)(C)C)c1ccccc1)C(N)=O [Compound R3151, [mXylyl(1,6)]Ac-C-V-A-R-F-C-D-Tbg-Y-azaTrp-E-Y-P-(D-Phg)-Nvl-NH2] (Ac-CVARFCD[Tle]Y[Trp(7-aza)]EYP[dPhg][Nva]-NH2; linker 1-6 via mXylylene) | 0.165 | – |
| CCC[C@H](NC(=O)[C@@H]1CSSC[C@H](NC(=O)[C@H](CCC)NC(C)=O)C(=O)N[C@@H](c2ccccc2)C(=O)N[C@@H]([C@@H](C)O)C(=O)N[C@@H](Cc2c[nH]c3ncccc23)C(=O)N[C@@H](CCC(=O)O)C(=O)N[C@@H](Cc2ccc(O)cc2)C(=O)N(C)[C@@H](CO)C(=O)N[C@@H](Cc2c[nH]cn2)C(=O)N1)C(N)=O [Compound R3042, [cyclo(2,10)]Ac-Nvl-C-Phg-T-azaTrp-E-Y-(N-Me)S-H-C-Nvl-NH2] (Ac-[Nva]C[Phg]T[Trp(7-aza)]EY[NMeS]HC[Nva]-NH2; disulfide 2-10) | > 100 | – |
| CCC[C@H](NC(=O)[C@@H]1CSCc2cccc(c2)CSC[C@H](NC(=O)[C@H](CCC)NC(C)=O)C(=O)N[C@@H](c2ccccc2)C(=O)N[C@@H]([C@@H](C)O)C(=O)N[C@@H](Cc2c[nH]c3ncccc23)C(=O)N[C@@H](CCC(=O)O)C(=O)N[C@@H](Cc2ccc(O)cc2)C(=O)N(C)[C@@H](CO)C(=O)N1)C(N)=O [Compound R3080, [mXylyl(2,9)]Ac-Nvl-C-Pha-T-azaTrp-E-Y-(N-Me)S-C-Nvl-NH2] (Ac-[Nva]C[Phg]T[Trp(7-aza)]EY[NMeS]C[Nva]-NH2; linker 2-9 via mXylylene) | > 50 | – |
| CCC[C@H](NC(=O)[C@@H]1CSCc2cccc(c2)CSC[C@H](NC(=O)[C@H](CCC(=O)O)NC(=O)[C@H](Cc2ccc(O)cc2)NC(=O)[C@H](CO)NC(=O)[C@H](CCC)NC(C)=O)C(=O)N[C@@H](C(C)(C)C)C(=O)N[C@@H](Cc2ccc(O)cc2)C(=O)N[C@@H](Cc2c[nH]c3ncccc23)C(=O)N[C@@H](CCC(=O)O)C(=O)N[C@@H](Cc2ccc(O)cc2)C(=O)N2CCC[C@H]2C(=O)N[C@@H](C2CCCCC2)C(=O)N1)C(N)=O [Compound R3086, [mXylyl(5,13)]Ac-Nvl-S-Y-E-C-Tbg-Y-azaTrp-E-Y-P-Chg-C-Nvl-NH2] (Ac-[Nva]SYEC[Tle]Y[Trp(7-aza)]EYP[Chg]C[Nva]-NH2; linker 5-13 via mXylylene) | > 50 | – |
| CCCCCCCC(=O)NCCCC[C@H](NC(=O)[C@@H](NC(=O)[C@@H]1CCCN1C(=O)[C@H](Cc1ccc(O)cc1)NC(=O)[C@H](CCC(=O)O)NC(=O)[C@H](Cc1c[nH]c2ncccc12)NC(=O)[C@H](Cc1ccc(O)cc1)NC(=O)[C@@H](NC(=O)[C@H](CC(=O)O)NC(=O)[C@@H]1CSCc2cccc(c2)CSC[C@H](NC(C)=O)C(=O)N[C@@H](C)C(=O)N[C@@H](CCC(=O)O)C(=O)N[C@@H](CCCNC(=N)N)C(=O)N[C@@H](Cc2ccccc2)C(=O)N1)C(C)(C)C)c1ccccc1)C(N)=O [Compound R3166, [mXylyl(1,6)]Ac-C-A-E-R-F-C-D-Tbg-Y-azaTrp-E-Y-P-Phg-(Lys-C8)-NH2] | 0.0175 | – |
| CC(=O)N[C@H]1CSCc2cccc(c2)CSC[C@@H](C(=O)N[C@H](C(=O)N[C@@H](Cc2ccc(O)cc2)C(=O)N[C@@H](Cc2c[nH]c3ccccc23)C(=O)N[C@@H](CCC(=O)O)C(=O)N[C@@H](Cc2ccccc2)C(N)=O)C(C)C)NC(=O)[C@H](Cc2ccccc2)NC(=O)[C@H](CCCNC(=N)N)NC(=O)[C@H](CCC(=O)O)NC(=O)[C@H](C(C)C)NC1=O [Compound R3124, [mXylyl(1,6)]Ac-C-V-E-R-F-C-V-Y-W-E-F-NH2] (Ac-CVERFCVYWEF-NH2; linker 1-6 via mXylylene) | > 100 | ability to inhibit red blood cell lysis compared with the parent polypeptide (in words) (variants of R3021, R3002 or R3008): decrease in the ability; IC50 (variants of R3021 with internal amino acid deletions, inhibition of red blood cell lysis): > 100 µM |
| CC(=O)N[C@H]1CSCc2cccc(c2)CSC[C@@H](C(=O)N[C@@H](CC(=O)O)C(=O)N[C@H](C(=O)N[C@@H](Cc2ccc(O)cc2)C(=O)N[C@@H](Cc2c[nH]c3ccccc23)C(=O)N[C@@H](CCC(=O)O)C(=O)N[C@@H](Cc2ccccc2)C(N)=O)C(C)(C)C)NC(=O)[C@H](Cc2ccccc2)NC(=O)[C@H](CCCNC(=N)N)NC(=O)[C@H](CCC(=O)O)NC(=O)[C@H](C(C)C)NC1=O [Compound R3138, [mXylyl(1,6)]Ac-C-V-E-R-F-C-D-Tbg-Y-W-E-F-NH2] (Ac-CVERFCD[Tle]YWEF-NH2; linker 1-6 via mXylylene) | 0.0872 | – |
| CCC[C@H](NC(=O)[C@@H]1CSCc2cccc(c2)CSC[C@H](NC(=O)[C@H](CCC)NC(C)=O)C(=O)N[C@@H](c2ccccc2)C(=O)N[C@@H]([C@@H](C)O)C(=O)N[C@@H](Cc2c[nH]c3ncccc23)C(=O)N[C@@H](CCC(=O)O)C(=O)N[C@@H](Cc2ccccc2)C(=O)N(C)[C@@H](CO)C(=O)N[C@@H](C)C(=O)N1)C(N)=O [Compound R3100, [mXylyl(2,10)]Ac-Nvl-C-Phg-T-azaTrp-E-F-(N-Me)S-A-C-Nvl-NH2] (Ac-[Nva]C[Phg]T[Trp(7-aza)]EF[NMeS]AC[Nva]-NH2; linker 2-10 via mXylylene) | 0.626 | – |
| CCC[C@H](N)C(=O)N[C@H]1CSCc2cccc(c2)CSC[C@@H](C(N)=O)NC(=O)CNC(=O)[C@H](Cc2ccc(F)cc2)N(C)C(=O)[C@H](Cc2c[nH]cn2)NC(=O)[C@H](CO)N(C)C(=O)[C@H](Cc2ccc(F)cc2)N(C)C(=O)[C@H](c2ccccc2)NC(=O)[C@H](CO)N(C)C(=O)[C@H](Cc2ccc(O)cc2)NC1=O [Compound R3075, [mXylyl(2,11)]Nvl-C-Y-(N-Me)S-Phg-(N-Me-4-F)Phe-(N-Me)S-H-(N-Me-4-F)Phe-G-C-NH2] (H-[Nva]CY[NMeS][Phg][NMePhe(4-F)][NMeS]H[NMePhe(4-F)]GC-NH2; linker 2-11 via mXylylene) | > 75 | – |
